The text below walks through data of patent US7223788B2, “Substituted N-aryl heterocycles, process for their preparation and their use as medicaments” (Sanofi-Aventis Deutschland GmbH, priority 2003, dated 2007).

Structures are written as SMILES.

The test system of the test is female NMRI mice. Put plainly: Anorectic effect: reduction in cumulative milk consumption after oral administration (gavage) to fasted mice. As to conditions: oral dose 30 mg/kg by gavage, after withdrawal of food for 17 hours, condensed milk consumption over 7 hours, compared with vehicle-treated control. It counts as in vivo. The protocol: The anorectic effect was tested on female NMRI mice. After withdrawal of food for 17 hours, the test product was administered by gavage. The animals were housed singly with free access to drinking water and were offered condensed milk 30 minutes after administration of the product. The condensed milk consumption was determined every half hour for 7 hours, and the general wellbeing of the animals was observed. The measured milk consumption was compared with the vehicle-treated control animals.

As for `CC(=O)N(C)C1CCN(c2ccc(NC(=O)N3CCC(c4ccc(Cl)cc4)CC3)cc2)C1` (centres unmarked) [Example 13, 4-(4-Chlorophenyl)piperidine-1-carboxylic acid {4-[3-(acetylmethylamino)-pyrrolidin-1-yl]phenyl}amide], the “Reduction in the cumulative milk consumption as % of the control” value was determined as 64%. With `CC(=O)N(C)[C@@H]1CCN(c2ccc(NC(=O)Nc3ccc(Oc4ccccc4)cc3)cc2)C1` [Example 4, (R)-N-Methyl-N-(1-{4-[3-(4-phenoxyphenyl)ureido]phenyl}pyrrolidin-3-yl)acetamide], the “Reduction in the cumulative milk consumption as % of the control” value worked out at 50%.
